PMC11999303 (iScience, 2025)
Entries after “also recorded” stand apart in the source; their conditions may differ.

These sequences were tested against I-A^b (Mus musculus, UniProt P14434+P14483) (assay: MHC2-SCALE peptide exchange with 2D-LCMS detection on I-A^b). Details: single peptide, lowmCLIP-I-A^b, standard exchange pH 5, 2D-LCMS.
Assay type: binding

Sequence of I-A^b (P14434 whole entry, looked up): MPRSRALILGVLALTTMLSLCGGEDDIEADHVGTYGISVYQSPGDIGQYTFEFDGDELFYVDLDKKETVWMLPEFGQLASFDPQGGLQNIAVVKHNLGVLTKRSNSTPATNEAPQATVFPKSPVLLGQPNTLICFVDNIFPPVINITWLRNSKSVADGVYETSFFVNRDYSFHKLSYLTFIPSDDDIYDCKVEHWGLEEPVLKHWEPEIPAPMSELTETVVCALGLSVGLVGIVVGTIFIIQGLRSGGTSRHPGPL
Sequence of I-A^b (P14483 whole entry, looked up): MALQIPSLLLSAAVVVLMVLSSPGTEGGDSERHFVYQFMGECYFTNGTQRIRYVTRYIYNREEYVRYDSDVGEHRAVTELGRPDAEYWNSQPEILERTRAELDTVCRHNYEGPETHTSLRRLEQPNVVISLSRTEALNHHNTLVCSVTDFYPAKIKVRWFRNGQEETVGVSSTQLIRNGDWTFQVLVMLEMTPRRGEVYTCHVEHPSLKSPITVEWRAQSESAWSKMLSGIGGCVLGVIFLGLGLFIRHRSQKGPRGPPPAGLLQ

peptide exchange / binding to I-A^b by MHC2-SCALE, in words | Sequence
binders | DRGVIMSAHSLTNSS [M57-A]
bound; also recorded: strong binder | HYKYMCNSSCMGVMN [M112-A]
complete peptide exchange | LPLQPFQLAFGHLVN [M46-A]
complete peptide exchange | LQPFQLAFGHLVNRQV [M46-B]
binders | VIMSAHSLTNSSSDF [M57-B]
